Measured values: PubChem BioAssay (NCI)
Where “and” joins values, the source holds several entries; their conditions need not be identical. Equal entries are not always repeated.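 Test compounds were applied to cells in 96-well plates for 48 hours at 5 doses. GI50 is the concentration that inhibits growth by half. The concentration for full growth arrest is given as TGI.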

Legend:
Test in all cases: DTP human tumour cell line panel, 48 h
A549 NSCLC = system: A549 NSCLC
CCRF-CEM leukemia = system: CCRF-CEM leukemia
HOP-62 NSCLC = system: HOP-62 NSCLC
HT29 colon = system: HT29 colon
K-562 leukemia = system: K-562 leukemia
SK-MEL-2 melanoma = system: SK-MEL-2 melanoma
SK-MEL-5 melanoma = system: SK-MEL-5 melanoma
SN12C renal = system: SN12C renal
SNB-19 CNS = system: SNB-19 CNS
U251 CNS = system: U251 CNS

Structure (SMILES) | GI50 (A549 NSCLC) [µM] | TGI (A549 NSCLC) | GI50 (CCRF-CEM leukemia) [µM] | GI50 (HOP-62 NSCLC) [µM] | TGI (HOP-62 NSCLC) | GI50 (HT29 colon) [µM] | TGI (HT29 colon) | GI50 (K-562 leukemia) [µM] | TGI (K-562 leukemia) [µM] | GI50 (SK-MEL-2 melanoma) [µM] | GI50 (SK-MEL-5 melanoma) [µM] | GI50 (SN12C renal) [µM] | TGI (SN12C renal) [µM] | GI50 (SNB-19 CNS) [µM] | TGI (SNB-19 CNS) [µM] | GI50 (U251 CNS) [µM] | TGI (U251 CNS) | TGI (CCRF-CEM leukemia) [µM] | TGI (SK-MEL-2 melanoma) [µM] | TGI (SK-MEL-5 melanoma) [µM]
COc1ccc2c(c1)/C(=C/c1cc(OC)c(OC)c(OC)c1)C(=O)N2 | 0.603 | > 100 µM | 0.253 | 0.137 | > 47.5 µM | 0.116 | 21.1 µM | < 0.0327 | > 36.3 | 1.18 | 0.155 | 1.18 | > 100 | 0.433 | > 100 | 0.407 | 16.7 µM |  |  | 
C/C(=N/NC(=O)C[N+](C)(C)C)C(CN(C)C)C(=O)Nc1ccccc1 (stereo unspecified) |  | > 100 µM |  |  | > 100 µM |  | > 100 µM |  | > 100 |  |  |  | > 100 |  | > 100 |  | > 100 µM | > 100 | > 100 | > 100
CCNC(=O)c1noc(-c2cc(C(C)C)c(O)cc2O)c1-c1ccc(CN2CCOCC2)cc1 | 0.0221 | 22.7 µM | 0.0321 | 0.0532 | 29.4 µM | 0.0343 | 2.09 µM | < 0.0172 | > 46.3 | 0.0311 | 0.047 | 0.0707 | > 100 | 0.0762 | > 100 | < 0.0131 | 15.5 µM | > 75.4 | 8.74 | 14.2
COc1ccc2[nH]c3c(c2c1)[C@H](C)C[C@@H]1C(=O)N(c2ccccc2)C(=O)[C@H]31 |  | 62.4 µM |  |  | 52.5 µM |  |  |  | > 100 |  |  |  | 58.6 |  | > 100 |  | 32.4 µM | > 100 | > 100 | > 100
O=C(N/N=C/c1ccccc1O)c1ccccc1 | 3.9 | > 100 µM | 0.35 | 1.61 | 8.61 µM | 3.43 | > 100 µM | 3.59 | > 100 | > 100 | 2.97 | 2.45 | > 100 | 6.22 | > 100 | 1.94 | > 100 µM | 8.3 | > 100 | > 100
O=[N+]([O-])c1ccc(Sc2c3ccccc3nc3cc(Cl)ccc23)cc1 | > 100 | > 100 µM |  | > 100 | > 100 µM |  | > 100 µM | > 100 | > 100 | > 100 | > 100 | > 100 | > 100 | > 100 | > 100 | > 100 | > 100 µM | > 100 | > 100 | > 100
O=c1oc2ccccc2[n+]([O-])c1-c1ccccc1 |  | > 100 µM |  |  | > 100 µM |  | > 100 µM |  | > 100 |  |  |  | > 100 |  | > 100 |  | > 100 µM | > 100 | > 100 | > 100
COC(=O)C1(C)Cc2cc(OC(C)=O)c(OC(C)=O)cc2N1 (stereo unspecified) | 11.6 | 29.4 µM | 3.42 | > 100 | > 100 µM | 13 | 56.7 µM | 3.67 | > 100 | 5.92 | 13.9 | 17 | > 81.8 | > 61.9 | > 100 | 8.09 | 21.9 µM | > 46 | 17.9 | 27.8
CNC(=O)c1nn(C)c2c1C(C)(C)Cc1cnc(Nc3ccc(N4CCN(C)CC4)cc3)nc1-2 | 0.682 | > 10 µM | 1.58 | 0.435 | 9.84 µM | 0.94 | > 10 µM | 0.356 | > 7.77 | 0.432 | 7.44 | 0.705 | > 10 | 0.322 | > 10 | 0.846 | > 10 µM | > 10 | > 8.25 | > 10
NC(=S)NN/C=C(\C=Nc1ccccc1)[N+](=O)[O-] |  | > 100 µM |  |  | > 100 µM |  | > 100 µM |  | > 100 |  |  |  | > 100 |  | > 100 |  |  | > 100 | > 100 | 
CC(C)(C)c1cc(C=C(C#N)C#N)cc(C(C)(C)C)c1O |  | 24.3 µM and 71.4 µM | 0.609 |  | 6.87 µM and 1.65 µM | 0.33 | 7.81 µM and 10.6 µM |  | > 354 |  | 0.298 | 0.513 | 4.6 | 0.271 | 115 | 0.359 | 23.1 µM and 11.5 µM |  | 1.39 | 3.07
CC(=O)OCC1OC(N2C(=O)C(=O)c3ccccc32)C(OC(C)=O)C(OC(C)=O)C1OC(C)=O (stereo unspecified) |  | > 100 µM |  |  | > 100 µM |  | > 100 µM |  | > 100 |  |  |  | > 100 |  | > 100 |  | > 100 µM | > 100 | > 100 | > 100
O=c1c2cc(Br)ccc2nc(CCl)n1-c1ccc(O)c([N+](=O)[O-])c1 |  | 52.3 µM |  |  | 36.1 µM |  | 68.2 µM |  | 48.5 |  |  |  | 36 |  |  |  | > 100 µM | 52.9 | 31.1 | 29.8
CC(C)(C)C(=O)[CH-]C(=O)C(C)(C)C.CC(C)(C)C(=O)[CH-]C(=O)C(C)(C)C.CN(C)c1ccc([O-])cc1.CN(C)c1ccc([O-])cc1.[Ti+4] | > 100 | > 100 µM | > 100 | > 100 | > 100 µM | > 100 | > 100 µM | > 100 | > 100 | > 100 | > 100 | > 100 | > 100 |  |  | 43.1 | > 100 µM | > 100 | > 100 | > 100
CN(C)C(=S)/N=c1\ssc(=S)n1Cc1ccncc1 |  | > 100 µM |  |  | 92.2 µM |  |  |  | > 100 |  |  |  | > 100 |  | > 100 |  | 39 µM | 57 | 52.2 | 17.4
COc1cnc2c(c1)C(=O)c1c-2n(CCCN2CCN(C)CC2)c(=O)c2cc([N+](=O)[O-])ccc12 | 0.128 | 0.337 µM | 0.0683 | 0.0813 | 0.392 µM | 0.167 | 0.352 µM | 0.154 | 0.395 | 11 | 1.31 |  |  | 0.399 | 5.01 | 0.165 | 0.386 µM | 0.834 | 23.2 | 2.64
